We go through one substance from US6262036A, “Method for inhibiting RNA translation using chimeric oligonucleoside compounds” (priority 2000, dated 2001).

[mp] = methylphosphonate linkage

Series [1] concerns complementary synthetic RNA target. Briefly: Hybridization of chirally enriched and non-chiral oligomers to RNA targets (Example 32). Format: binding. The note with it: 1:1 with RNA, midpoint of sigmoidal transition at 260 nm. As to the method:
Chirally enriched all-pyrimidine (C*T)7 A and all-purine (A*G)7 T MP-oligomers were prepared using either Rp - or Sp -dimeric units. Control oligomers were also prepared using the individual monomeric units. The asterisks indicate the positions of defined chirality.
Each oligomer was annealed to a complementary synthetic RNA target and then monitored by absorbance at 260 nm as a function of temperature. Sigmoidal transitions were observed corresponding to thermal denaturation of the hybridization complexes. The Tm values were determined at the midpoint of each sigmoidal transition. […] Thus, we anticipated that the data for each chirally enriched series would be applicable to double-stranded and triple-stranded MP/RNA helices, respectively.

The subject of series [2] is complementary RNA targets. In words: Tm of Rp-enriched versus racemic methylphosphonate oligomers with RNA (Example 33). Format: binding. The note with it: 2.4 μM total strand concentration, pH 7.2, 100 mM sodium chloride.
Series [3] has as its system complementary synthetic RNA targets. Briefly: Binding stability of backbone modified (CT)7A oligomers to RNA (Example 34).

As for “2288-1: 5'-CT-CT-CT-CT-CT-CT-CT-A-3', racemic all-MP (CTCTCTCTCTCTCTA; all [mp], sugars by position and methylation of C not given here) [Oligomer 2288-1]”, the “Tm (1:1, RNA)” value in series [1] was 35.1 °C. In addition, the Tm in series [2] was found to be 34.4 °C. In series [3] (2.4 μM total strand concentration, pH 7.2, 100 mM sodium chloride), the TM is 34.0 °C. The “K (37° C.) (binding constant KA)” value in series [3] (37° C., two-state model fit of thermal dissociation data) is 8.3 × 10^5.
